Assays:
[1] = test system: human white blood cells; experiment: Induced cytokine release from stimulated human white blood cells (overall conclusion); type: cell-based; details: PHA 5 μg/ml, 16 hours; conclusion in words
Method: The objective of this study was to assess the ability of norketotifen to inhibit induced cytokine release from stimulated human white blood cells.
The study was conducted in two phases. The first phase included optimization of the test methodology and including dose-range finding studies, using buffy coats from 3 human donors, stimulated with phytohemagglutinin (PHA). Following optimization of the test conditions, a final protocol was issued. In the following Main Study, white blood cells (buffy coats) from 5 healthy human donors were stimulated with PHA, 5 μg/ml. The concentrations of the test article and the duration of exposure were optimized to obtain acceptable dose-response ratios. Thus, the inhibitory effects of three concentrations of NK and one concentration of ketotifen were evaluated in the Main Study. The buffy coats containing white blood cells from 5 male human donors were resuspended in assay media and were pre-incubated for 30 min with either vehicle/saline, ketotifen 10 μM ([…]) or norketotifen 1 μM and 10 μM and 100 μM, corresponding to 0.411 μg/ml, 4.11 μg/ml and 41.1 μg/ml, resp. Following these preincubations, the white blood cells were stimulated for 16 hours with PHA, 5 μg/ml. The cell system supernatants were then harvested and stored frozen pending analyses. […]

[2] = Preclinical studies of immune-suppressive effects; details: compared with the steroids
Text: Norketotifen is thus particularly useful in the treatment of diseases treatable with the TNFα blocking agents adalimumab (Humira®), infliximab (Remicade®, Inflectra®), certolizumab pegol (Cimzia®), golimumab (Simponi®) and enteracept (Enbrel®); the IL-4 and IL-13 inhibitors dupilumab (Dupixent®), pascolizumab, pitrakinra, and lebrikizumab, anrukinzumab, and tralokinumab; and the IL-5 inhibitors mepolizumab, reslizumab and benralizumab. Advantageously, norketotifen is a small molecule and oral and parenteral administration of norketotifen can provide for convenience and significant cost savings.

[3] = test system: mouse; details: mouse model of sedation; U.S. Pat. Nos. 7,226,934 and 7,557,128; cited from earlier work

SMILES	Inhibition of the release of cytokines from human white blood cells [1]	Adverse immune-suppressive effects [2]	Sedative effects [3]
O=C1Cc2ccccc2C(=C2CCNCC2)c2ccsc21 (racemic) [Norketotifen, norketotifen]	potently and dose-dependently inhibited	free from the adverse immune-suppressive effects	–
CN1CCC(=C2c3ccccc3CC(=O)c3sccc32)CC1 [Ketotifen, ketotifen, reference compound]	No statistically significant inhibition	–	–
O=C(O)/C=C/C(=O)O.O=C1Cc2ccccc2C(=C2CCNCC2)c2ccsc21 [R-isomer, R-norketotifen]	–	–	sedative effects were attributed to the R-isomer

Reference: patent US20210267960A1, “METHODS OF TREATMENT OF INFLAMMATORY CYTOKINE-RELATED ARTHRITIC DISORDERS” (Bridge Pharma Inc., priority 2020, published 2021)
